Measurements reported in patent US12024512B2, “Cocrystal” (TAKEDA PHARMACEUTICAL COMPANY LIMITED, priority 2016, dated 2024).
≈ marks a conversion by molar mass, not a printed value.

Experiments:
Type in all cases: physicochemical
[1] = Recrystallization experiment: crystal form of precipitate from organic solvent; conditions: dissolved at 55° C., cooled to 5° C.
Method: (§1) Powder X-ray diffraction measurement was performed using Cu-Kα radiation and measured by horizontal multipurpose X-ray diffraction system Ultima IV manufactured by Rigaku Corporation. Differential scanning calorimetric or thermogravimetric measurement was performed using DSC1/700/903-2 manufactured by Mettler Toledo or TGA/DSC1/LF/629-2 manufactured by Mettler Toledo and measured at temperature rise rate 5° C./min. Infrared spectrum was measured using Fourier transform infrared spectrophotometer Shimadzu IR Prestige-21 manufactured by Shimadzu Corporation and mounting Dura Sample IR II manufactured by Smiths Detection and by a total reflection method absorption measurement method at resolution 4 cm^−1. Raman spectroscopy was measured using RXN2 manufactured by Kaiser Optical Systems and a laser light source at excitation wavelength 1064 nm. Single crystal X-ray diffraction was measured using Cu-Kα radiation and curved imaging plate single crystal automatic X-ray structure analyzer R-AXIS RAPID II manufactured by Rigaku Corporation. Initial phase was determined by the direct method and the structure was refined by SHELXL-97. […] Intrinsic dissolution rate measurement was evaluated using a compression-molded disc of a crystal powder alone and in 20 mmoL/L sodium phosphate buffer (pH 6.8) containing 0.2% (w/v) sodium lauryl sulfate and by a rotating disc method (rotating speed: 100 rpm). Dissolution test was performed using a powder obtained by physically mixing a crystal powder and lactose in the same weight as the crystal powder and evaluated in Fasted State Simulated Intestinal Fluid (FaSSIF) at 37° C. by a rotating paddle method (paddle rotating speed: 50 rpm). The drug concentration of a solution was determined by liquid chromatography using Alliance HPLC system e2695 and detector 2789 manufactured by Waters (separation column: YMCPackPro C18 4.6 mm[…]×150 mm, temperature: 40° C., mobile phase: 20 mmol/L sodium phosphate buffer (pH 6.8)/acetonitrile=60/40 (v/v), flow rate: 1 mL/min, ultraviolet absorption detection wavelength: 240 nm). As slurry experiment, a test solvent was added to a crystal powder, the mixture was stirred at about 25° C. for 24 hr in suspension, the obtained residue was collected by filtration, and the crystal form was confirmed by powder X-ray diffraction measurement or Raman spectroscopy. In the recrystallization experiment, crystals were dissolved in ethanol, acetone, 2-propanol, tetrahydrofuran, methyl ethyl ketone, ethyl acetate, isopropyl acetate, anisole or isobutyl acetate at 55° C., filtered through a filter, allowed to cool to 5° C. or allowed to cool to 5° C. after adding n-heptane to the solution, and the crystal form of the obtained precipitate was confirmed by powder X-ray diffraction measurement or Raman spectroscopy.

[2] = Slurry experiment: crystal form of residue after stirring in test solvent; conditions: about 25° C., 24 hr
Method: as §1

[3] = Solubility in aqueous solutions after shaking each crystal at 37° C. for 24 hr; conditions: thermodynamic from solid, 24 hr shaking
[4] = 2-propanol/n-heptane, n-heptane added
[5] = acetone/n-heptane, n-heptane added
[6] = anisole/n-heptane, n-heptane added
[7] = ethanol/n-heptane, n-heptane added
[8] = ethyl acetate/n-heptane, n-heptane added
[9] = methyl ethyl ketone/n-heptane, n-heptane added
[10] = tetrahydrofuran/n-heptane, n-heptane added
[11] = isobutyl acetate/n-heptane, n-heptane added
[12] = isopropyl acetate/n-heptane, n-heptane added

Structure (SMILES): CCc1cc2c(c(OCC(F)(F)F)c(C(=O)NC3CCN(C(=O)CO)CC3)n2C)c(=O)n1CC(=O)c1ccccc1 [anhydrous crystal of free form, 6-ethyl-N-[1-(hydroxyacetyl)piperidin-4-yl]-1-methyl-4-oxo-5-(2-oxo-2-phenylethyl)-3-(2,2,2-trifluoroethoxy)-4,5-dihydro-1H-pyrrolo[3,2-c]pyridine-2-carboxamide, reference compound]
- Crystal form of precipitate obtained by recrystallization experiment ([1]; 2-propanol): free form (solvate)
- Crystal form of precipitate obtained by recrystallization experiment [1, 4]: free form (solvate)
- Crystal form of precipitate obtained by recrystallization experiment ([1]; acetone): free form (solvate)
- Crystal form of precipitate obtained by recrystallization experiment [1, 5]: free form (solvate)
- Crystal form of precipitate obtained by recrystallization experiment ([1]; anisole): free form (solvate)
- Crystal form of precipitate obtained by recrystallization experiment [1, 6]: free form (solvate)
- Crystal form of precipitate obtained by recrystallization experiment ([1]; ethanol): free form (solvate)
- Crystal form of precipitate obtained by recrystallization experiment [1, 7]: free form (solvate)
- Crystal form of precipitate obtained by recrystallization experiment ([1]; ethyl acetate): free form (solvate)
- Crystal form of precipitate obtained by recrystallization experiment [1, 8]: free form (solvate)
- Crystal form of precipitate obtained by recrystallization experiment ([1]; isobutyl acetate): free form solvate)
- Crystal form of precipitate obtained by recrystallization experiment ([1]; isopropyl acetate): free form (solvate)
- Crystal form of precipitate obtained by recrystallization experiment ([1]; methyl ethyl ketone): free form (solvate)
- Crystal form of precipitate obtained by recrystallization experiment [1, 9]: free form (solvate)
- Crystal form of precipitate obtained by recrystallization experiment ([1]; tetrahydrofuran): free form (solvate)
- Crystal form of precipitate obtained by recrystallization experiment [1, 10]: free form (solvate)
- Crystal form of residue after slurry experiment ([2]; 2-propanol): free form (solvate)
- Crystal form of residue after slurry experiment ([2]; acetone): free form (solvate)
- Crystal form of residue after slurry experiment ([2]; anisole): free form (solvate)
- Crystal form of residue after slurry experiment ([2]; distilled water): free form (solvate)
- Crystal form of residue after slurry experiment ([2]; ethanol): free form (solvate)
- Crystal form of residue after slurry experiment ([2]; ethyl acetate): free form (solvate)
- Crystal form of residue after slurry experiment ([2]; methyl ethyl ketone): free form (solvate)
- Crystal form of residue after slurry experiment ([2]; tetrahydrofuran): free form (solvate)
- solubility at 24 hr ([3]; Fasted State Simulated Intestinal Fluid (FaSSIF), FaSSIF): 23.9 ± 0.1 µg/mL (≈ 41.5 µM)
- solubility at 24 hr ([3]; Fed State Simulated Intestinal Fluid (FeSSIF), FeSSIF): 88.7 ± 0.7 µg/mL (≈ 154 µM)
- solubility at 24 hr ([3]; Japanese Pharmacopoeia 1st fluid for dissolution test (JP1), simulated gastric fluid, JP1 (Japanese Pharmacopoeia 1st fluid for dissolution test)): 20.6 ± 0.4 µg/mL (≈ 35.7 µM)
- solubility at 24 hr ([3]; distilled water, concentration of API): 21.5 ± 0.5 µg/mL (≈ 37.3 µM)

Structure (SMILES): CCc1cc2c(c(OCC(F)(F)F)c(C(=O)NC3CCN(C(=O)CO)CC3)n2C)c(=O)n1CC(=O)c1ccccc1.O=C(O)C[C@H](O)C(=O)O [cocrystal with L-malic acid, cocrystal of 6-ethyl-N-[1-(hydroxyacetyl)piperidin-4-yl]-1-methyl-4-oxo-5-(2-oxo-2-phenylethyl)-3-(2,2,2-trifluoroethoxy)-4,5-dihydro-1H-pyrrolo[3,2-c]pyridine-2-carboxamide and L-malic acid]
- Crystal form of precipitate obtained by recrystallization experiment ([1]; 2-propanol): no precipitate
- Crystal form of precipitate obtained by recrystallization experiment [1, 4]: cocrystal *
- Crystal form of precipitate obtained by recrystallization experiment ([1]; acetone): free form (solvate)
- Crystal form of precipitate obtained by recrystallization experiment [1, 5]: free form (solvate)
- Crystal form of precipitate obtained by recrystallization experiment ([1]; anisole): no precipitate
- Crystal form of precipitate obtained by recrystallization experiment [1, 6]: free form (solvate)
- Crystal form of precipitate obtained by recrystallization experiment ([1]; ethanol): free form (solvate)
- Crystal form of precipitate obtained by recrystallization experiment [1, 7]: free form (solvate)
- Crystal form of precipitate obtained by recrystallization experiment ([1]; ethyl acetate): free form (solvate)
- Crystal form of precipitate obtained by recrystallization experiment [1, 8]: free form (solvate)
- Crystal form of precipitate obtained by recrystallization experiment ([1]; isobutyl acetate): cocrystal * + free form (solvate)
- Crystal form of precipitate obtained by recrystallization experiment [1, 11]: free form (solvate)
- Crystal form of precipitate obtained by recrystallization experiment ([1]; isopropyl acetate): free form (solvate)
- Crystal form of precipitate obtained by recrystallization experiment [1, 12]: cocrystal * + free form (solvate)
- Crystal form of precipitate obtained by recrystallization experiment ([1]; methyl ethyl ketone): free form (solvate)
- Crystal form of precipitate obtained by recrystallization experiment [1, 9]: cocrystal + free form (solvate)
- Crystal form of precipitate obtained by recrystallization experiment ([1]; tetrahydrofuran): free form (solvate)
- Crystal form of precipitate obtained by recrystallization experiment [1, 10]: cocrystal + free form (solvate)
- Crystal form of residue after slurry experiment ([2]; 2-propanol): cocrystal *
- Crystal form of residue after slurry experiment ([2]; acetone): cocrystal *
- Crystal form of residue after slurry experiment ([2]; anisole): free form (solvate)
- Crystal form of residue after slurry experiment ([2]; distilled water): cocrystal* + free form (solvate)
- Crystal form of residue after slurry experiment ([2]; ethanol): cocrystal *
- Crystal form of residue after slurry experiment ([2]; ethyl acetate): cocrystal* + free form (solvate)
- Crystal form of residue after slurry experiment ([2]; methyl ethyl ketone): cocrystal* + free form (solvate)
- Crystal form of residue after slurry experiment ([2]; tetrahydrofuran): free form (solvate)

Structure (SMILES): CCc1cc2c(c(OCC(F)(F)F)c(C(=O)NC3CCN(C(=O)CO)CC3)n2C)c(=O)n1CC(=O)c1ccccc1.O=C(O)C(O)C(O)C(=O)O [cocrystal with L-tartaric acid, cocrystal of 6-ethyl-N-[1-(hydroxyacetyl)piperidin-4-yl]-1-methyl-4-oxo-5-(2-oxo-2-phenylethyl)-3-(2,2,2-trifluoroethoxy)-4,5-dihydro-1H-pyrrolo[3,2-c]pyridine-2-carboxamide and L-tartaric acid]
- Crystal form of precipitate obtained by recrystallization experiment ([1]; 2-propanol): cocrystal *
- Crystal form of precipitate obtained by recrystallization experiment [1, 4]: cocrystal *
- Crystal form of precipitate obtained by recrystallization experiment ([1]; acetone): free form (solvate)
- Crystal form of precipitate obtained by recrystallization experiment [1, 5]: cocrystal * + free form (solvate)
- Crystal form of precipitate obtained by recrystallization experiment ([1]; anisole): no precipitate
- Crystal form of precipitate obtained by recrystallization experiment [1, 6]: free form (solvate)
- Crystal form of precipitate obtained by recrystallization experiment ([1]; ethanol): free form (solvate)
- Crystal form of precipitate obtained by recrystallization experiment [1, 7]: free form (solvate)
- Crystal form of precipitate obtained by recrystallization experiment ([1]; ethyl acetate): free form (solvate)
- Crystal form of precipitate obtained by recrystallization experiment [1, 8]: cocrystal * + free form (solvate)
- Crystal form of precipitate obtained by recrystallization experiment ([1]; isobutyl acetate): cocrystal *
- Crystal form of precipitate obtained by recrystallization experiment [1, 11]: cocrystal *
- Crystal form of precipitate obtained by recrystallization experiment ([1]; isopropyl acetate): free form (solvate)
- Crystal form of precipitate obtained by recrystallization experiment [1, 12]: cocrystal *
- Crystal form of precipitate obtained by recrystallization experiment ([1]; methyl ethyl ketone): free form (solvate)
- Crystal form of precipitate obtained by recrystallization experiment [1, 9]: cocrystal *
- Crystal form of precipitate obtained by recrystallization experiment ([1]; tetrahydrofuran): free form (solvate)
- Crystal form of precipitate obtained by recrystallization experiment [1, 10]: cocrystal *
- Crystal form of residue after slurry experiment ([2]; 2-propanol): cocrystal* + free form (solvate)
- Crystal form of residue after slurry experiment ([2]; acetone): cocrystal *
- Crystal form of residue after slurry experiment ([2]; anisole): cocrystal* + free form (solvate)
- Crystal form of residue after slurry experiment ([2]; distilled water): cocrystal* + free form (solvate)
- Crystal form of residue after slurry experiment ([2]; ethanol): cocrystal * + free form (solvate)
- Crystal form of residue after slurry experiment ([2]; ethyl acetate): cocrystal* + free form (solvate)
- Crystal form of residue after slurry experiment ([2]; methyl ethyl ketone): cocrystal* + free form (solvate)
- Crystal form of residue after slurry experiment ([2]; tetrahydrofuran): cocrystal* + free form (solvate)
